Reference: PMC6274061, “Inhibition of Urease by Disulfiram, an FDA-Approved Thiol Reagent Used in Humans” (Molecules, 2016)

Key:
[1] = system: Citrullus vulgaris urease (CVU); assay: Inhibition of CVU urease activity after 1 h incubation with inhibitor (phenol red assay); type: biochemical; settings: for IC50: CVU incubated 1 h at 37 °C with inhibitor, 2 mM urea, pH 6.8; for Plateau (% of Initial): residual activity at plateau from the fit, 1 h at 37 °C
Experimental: (§1) The specific ureolytic activity was assayed spectrophotometrically at 37 °C in a Fluostar Omega (BMG LABTECH Inc, Cary, NC, USA) spectrometer. The reaction was monitoring by the increase of ammonia concentration following the absorbance at 558 nm by The Phenol Red Assay, taking similar considerations as the one described elsewhere. The standard urease test consisted in 0.3 mL of reaction buffer: 0.5 mM MES, 0.016 mM phenol red, and 50 mM urea, at pH 6.8. All assays were initiated by the addition of the enzyme (≈0.6 ng/mL). Initial velocity rates were determined from the initial linear portion of the reaction course-times. Saturation kinetics experiments were performed under the same conditions, except that different concentrations of urea were used (0.5 to 50 mM), and data were fitted to Michaelis-Menten model (Equation (1)). All experiments presented were reproduced at least three times.
To evaluate the saturation of CVU with inhibitors, enzyme was incubated for one hour at 37 °C with different concentrations of inhibitors in the standard reaction mixture, the reactions were started by the addition of urea to a final concentration of 2 mM, followed by the measurement of the residual activity. Percentages of residual activity were plotted against inhibitor concentration. Since two types of behavior were observed, two different equations were used to fit the data. In one case, we observed a trend that produced a full loss of activity (Equation (3)), and in the other case a partial inhibition is observed, meaning that at enzyme saturation activity value is non-zero (Equation (4)).
Equation (3): Full-Inhibition Saturation Kinetics, (3) residual activity (%) = A0 IC50h/IC50h+[I]^h where h, is the Hill coefficient; IC50 is the apparent inhibition constant; [I], is the inhibitor concentration. Residual activity and A0 is the same as in Equation (2).
Equation (4): Partially-Inhibition Saturation Kinetics, (4) residual activity (%)= A0 IC50h/IC50h+[I]^h+plateau where parameters and variables are same as in Equation (3), with the difference that a plateau is included.
Inhibition of CVU by Aldrithiol (2,2′-dipyridyl disulphide, here in after called DPS for dipyridine sulfide), captopril ((S)-1-(3-Mercapto-2-methyl-1-oxopropyl)-L-proline), bithionol (2,2′-Sulfanediylbis(4,6-dichlorophenol)) and quercetin were performed in a similar manner as for inhibition experiments with DSF. These inhibitors were purchased from Sigma-Aldrich (Toluca, Mexico). Inhibition kinetics data were fitted to the indicated equation. The protection of the activity by a given inhibitor (called I2), at a concentration equal to the IC50 value, over the inhibition produced by DPS was monitored measuring changes in initial velocity and plotting the percentage of inhibition for each treatment and expressed as mean ± SEM. Student t test was used to estimate statistical significance. Measurements of variance were performed using a one-way ANOVA. Differences were considered significant when p was less than 0.05. All experiments were performed at least three times, and in all cases the SEM justifies the accuracy of the values, except in the case of inhibition kinetics of bithionol and quercetin in which SEM is higher than 10% of the estimated value.

[2] = biological target: Citrullus vulgaris urease (CVU); assay: Binding equilibrium by intrinsic fluorescence quenching; settings: 1 h after addition, 37 °C, read-out: DSF dissociation constant (Kd)
Experimental: The binding of DSF was monitored after apparent equilibrium by measuring the intrinsic tryptophan fluorescence intensity changes at 37 °C using a spectrometer (Fluostar Omega, BMG). CVU was excited at 290 nm, and fluorescence intensity was recorded at 340 nm after an hour of incubation at 37 °C in the absence or presence of different concentrations of DSF. In order to discard solvent fluorescent changes, a control experiment was performed in which the different volumes of solvent (same as in the titration volumes used in ligand additions) were added to urease. Fluorescence intensity changes were plotted against the DSF concentrations and fitted to […]. Equation (6): Fluorescence binding saturation, (6) ΔIF = Bmax [DSF]/Kd+[DSF] where ΔIF, is the change in fluorescence intensity at 340 nm; Bmax, is the maximum ΔIF and corresponds to the maximum binding; [DSF], is the disulfiram concentration and Kd, is the dissociation constant.

[3] = system: Citrullus vulgaris urease (CVU); assay: Time courses of inactivation of CVU pre-incubated with DSF; type: biochemical; settings: 37 °C
Experimental: as §1
To evaluate the time and concentration-dependence of the inhibition of urease activity, the initial rates of urea hydrolysis were measured in the standard reaction mixture in the presence of DSF (tetraethylthiuram disulphide), (C2H5)2N(C=S)S–S(S=C)N(C2H5)2, during different incubation periods. DSF was purchased from Sigma-Aldrich (Toluca, Mexico). In these experiments urease reactions were started by the addition of urea to a final concentration of 2 mM. The residual activity in percentage of the initial was plotted against the time of incubation and fitted to an exponential decay equation with a plateau (Equation (2)).
Equation (2): Enzyme inactivation, (2) residual activity = (A0−plateau)(e^−kt)+plateau, where the residual activity is the observed activity upon the inhibition; A0, is the activity observed in the absence of the inhibitor; the plateau, is the value of Y minimum; k, is the observed one phase kinetic constant, and t is the time of incubation. Activity was transformed to percentage, where activity in the absence of DSF is 100%.

[4] = system: Citrullus vulgaris urease (CVU); assay: Inhibition pattern: urea saturation kinetics of CVU at fixed/variable DSF concentrations; type: biochemical
Experimental: as §1, with “three times. For the inhibition pattern urea saturation kinetics experiments were performed at fixed/variable concentrations of DSF and data were globally fitted to Equation (5).” for “three times.”

IC50 [1] [µM] | Kd [2] [µM] | Ki ([4]; global fit to non-competitive inhibition, Equation (5), read-out: Inhibition constant (Ki)) [µM] | Structure (SMILES) | Plateau (% of Initial) [1] | apparent half-life time of inactivation ([3]; 50 µM DSF) [min] | kobs of inactivation ([3]; 50 µM DSF) [min⁻¹] | plateau, % of the initial velocity ([3]; 50 µM DSF) | apparent half-life time of inactivation ([3]; 80 µM DSF) [min] | kobs of inactivation ([3]; 80 µM DSF) [min⁻¹] | plateau, % of the initial velocity ([3]; 80 µM DSF) | Inhibition mechanism ([4]; Lineweaver–Burk plots of the inhibition pattern)
376 ± 120 | – | – | Oc1c(Cl)cc(Cl)cc1Sc1cc(Cl)cc(Cl)c1O [Bithionol, 2,2′-Sulfanediylbis(4,6-dichlorophenol)] | 34.53 ± 18.23 % of Initial | – | – | – | – | – | – | –
524 ± 39.6 | – | – | CC(CS)C(=O)N1CCC[C@H]1C(=O)O (stereo partly drawn) [Captopril, (S)-1-(3-Mercapto-2-methyl-1-oxopropyl)-L-proline] | 0.00 % of Initial | – | – | – | – | – | – | –
– | 54.9 ± 3.9 | 67.6 ± 7 | CCN(CC)C(=S)SSC(=S)N(CC)CC [DSF, tetraethylthiuram disulphide] | 0.00 % of Initial | 13.80 | 0.050 ± 0.007 | 63.60% ± 1.40 | 7.50 | 0.092 ± 0.024 | 53.48% ± 3.05 | non-competitive inhibition mechanism
155 ± 10.2 | – | – | O=c1c(O)c(-c2ccc(O)c(O)c2)oc2cc(O)cc(O)c12 [Quercetin, quercetin] | 58.86 ± 1.52 % of Initial | – | – | – | – | – | – | –
